Measurements as given in US10022317B2, “Composition comprising an extract of herbal medicine processed by an oriental herbal medicine processing” (AMOREPACIFIC CORPORATION, priority 2013, dated 2018).

Tests used:
[1] = test system: collagenase; test: Collagenase expression inhibiting effect in human fibroblasts (collagenase kit, absorbance 405 nm); format: cell-based; details: 10^-4 M in serum-free DMEM, 24 hours, relative to non-treated group as 100
Description: The collagenase production inhibiting activity of the substances of Comparative Examples and Examples was compared with tocopherol and EGCG as control substances.
Human fibroblasts were seeded onto a 96-well plate holding Dulbecco's modified Eagle's medium (DMEM) comprising 2.5% fetal bovine serum, with 5,000 cells/well, and cultured until ˜90% confluency. The cells were further cultured in serum-free DMEM for 24 hours and treated with the mixture of oriental herbal medicine processed ginseng polysaccharide and green tea polysaccharide prepared in Comparative Examples 1-5 and Examples 1-6 at 10^−4 M in serum-free DMEM for 24 hours. Then the cell culture was collected.
The degree of collagenase production from the collected cell culture was measured using a commercially available collagenase kit (Amersham Pharmacia, USA). […]
Absorbance was measured at 405 nm using a spectrophotometer and the expression level of collagenase was calculated according to Equation 1. The expression level was calculated with respect to the non-treated control group. Expression level of collagenase (%)=[…]{(Absorbance of cells treated with substances of Comparative Example or Example÷Absorbance of control)×100} [Equation 1] […]

[2] = test system: procollagen; test: Procollagen production promoting effect in human fibroblasts (procollagen type-1 C-peptide EIA kit); format: cell-based; details: 10^-4 M in serum-free DMEM, 24 hours, relative to non-treated group as 100
Description: The procollagen production promoting activity of the substances of Comparative Examples and Examples was compared with that of vitamin C. Human fibroblasts were seeded onto a 96-well plate holding Dulbecco's modified Eagle's medium (DMEM) comprising 2.5% fetal bovine serum, with 5,000 cells/well, and cultured until ˜90% confluency. The cells were further cultured in serum-free DMEM for 24 hours and treated with the mixture of oriental herbal medicine processed ginseng polysaccharide and green tea polysaccharide prepared in Comparative Examples 1-5 and Examples 1-6 and vitamin C dissolved to 10^−4 M in serum-free DMEM for 24 hours. 24 hours later, the amount of free procollagen was measured using the procollagen type-1 C-peptide EIA kit (MK101, Takara, Japan). The level of procollagen production is given in Table 2 relative to the non-treated group as 100.

| Compound | Expression level of collagenase (%) [1] | Level of procollagen production (%) [2] |
| --- | --- | --- |
| O=C(O[C@@H]1Cc2c(O)cc(O)cc2O[C@@H]1c1cc(O)c(O)c(O)c1)c1cc(O)c(O)c(O)c1 [EGCG] | 63% |  |
| O=C1O[C@H]([C@@H](O)CO)C(O)=C1O [Vitamin C] |  | 121% |
| Tocopherol | 76% |  |
